Laboratory results as given in BindingDB's records for doi:10.1021/jm00003a001 (Glaxo Research Institute, 1995).
pIC50: −log10 of the molar value.

Biological target: DNA topoisomerase 1 (Bos taurus)
Assay: Inhibition of topoisomerase I activity was determined in vitro by using the cleavable complex assay(calf thymus)

SMILES	pIC50
CC[C@@]1(O)C(=O)OCc2c1cc1n(c2=O)Cc2c-1nc1cc3c(cc1c2CN1CCN(C)CC1)OCCO3 [8-ethyl-8-hydroxy-15-(4-methylhexahydro-1-pyrazinylmethyl)-(8S)-2,3,8,9,12,14-hexahydro-11H-[1,4]dioxino[2,3-g]pyrano[3',4':6,7]indolizino[1,2-b]quinoline-9,12-dione with trifluoroaceticacid]	6.38
CC[C@@]1(O)C(=O)OCc2c1cc1n(c2=O)Cc2c-1nc1cc3c(cc1c2CCl)OCO3 [14-chloromethyl-7-ethyl-7-hydroxy-(7S)-7,8,11,13-tetrahydro-10H-[1,3]dioxolo[4,5-g]pyrano[3',4':6,7]indolizino[1,2-b]quinoline-8,11-dione]	7.82
CC[C@@]1(O)C(=O)OCc2c1cc1n(c2=O)Cc2c-1nc1cc3c(cc1c2CCl)OCCO3 [15-chloromethyl-8-ethyl-8-hydroxy-(8S)-2,3,8,9,12,14-hexahydro-11H-[1,4]dioxino[2,3-g]pyrano[3',4':6,7]indolizino[1,2-b]quinoline-9,12-dione]	7.96
